Measured values taken from patent publication US12065444B2, “Substituted tetrazolo[1,5-a]pyrazines and tetrazolo[1,5-c]pyrimidines as adenosine receptor antagonists” (Crossignal Therapeutics, Inc., priority 2021, dated 2024).

Legend:
[1] = biological target: human adenosine A2a receptor (Homo sapiens, UniProt P29274); assay: Adenosine A2a receptor whole cell cyclic AMP assay; details: for inhibition at 10 µM: HEK293, 1 h, read-out: A2a @ 100 μM Adenosine (A2a cAMP IC50)
[2] = biological target: T1, human adenosine A2b receptor (Homo sapiens, UniProt P29275); assay: Adenosine A2b receptor whole cell cyclic AMP assay; details: for inhibition at 10 µM: HEK293, 1 h, read-out: A2b @ 10 μM Adenosine (A2b cAMP IC50)
T1 sequence (P29275 1-332): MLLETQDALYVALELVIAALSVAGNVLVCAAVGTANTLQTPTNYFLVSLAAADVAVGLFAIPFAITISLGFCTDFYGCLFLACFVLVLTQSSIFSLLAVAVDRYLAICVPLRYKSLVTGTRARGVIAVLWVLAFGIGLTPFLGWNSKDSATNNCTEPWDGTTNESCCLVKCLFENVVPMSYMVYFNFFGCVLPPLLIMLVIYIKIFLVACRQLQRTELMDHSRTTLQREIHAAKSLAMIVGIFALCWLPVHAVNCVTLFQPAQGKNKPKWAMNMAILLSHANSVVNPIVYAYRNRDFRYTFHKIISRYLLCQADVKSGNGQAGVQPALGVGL

[3] = A2a @ 1 μM Adenosine (A2a cAMP IC50), HEK293 cells stably expressing human A2a, 1 μM adenosine, 1 hour compound treatment
[4] = A2a @ 100 μM Adenosine (A2a cAMP IC50), HEK293 cells stably expressing human A2a, 100 μM adenosine, 1 hour compound treatment

Sequence of human adenosine A2a receptor (P29274 whole entry): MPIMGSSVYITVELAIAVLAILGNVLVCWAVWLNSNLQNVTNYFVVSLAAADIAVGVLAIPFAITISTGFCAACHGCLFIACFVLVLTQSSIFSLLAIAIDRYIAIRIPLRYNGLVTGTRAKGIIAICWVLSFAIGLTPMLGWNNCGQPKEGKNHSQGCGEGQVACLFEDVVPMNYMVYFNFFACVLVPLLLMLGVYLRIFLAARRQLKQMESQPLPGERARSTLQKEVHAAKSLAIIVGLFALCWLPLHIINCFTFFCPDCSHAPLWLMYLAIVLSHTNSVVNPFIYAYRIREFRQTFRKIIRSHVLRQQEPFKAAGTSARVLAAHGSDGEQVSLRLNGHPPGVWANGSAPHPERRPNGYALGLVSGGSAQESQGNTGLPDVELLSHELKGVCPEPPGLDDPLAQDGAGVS

Structure (SMILES) | IC50 [1, 3] [µM] | inhibition at 10 µM [2] [%] | IC50 [1, 4] [µM] | IC50 [2] [µM] | inhibition at 10 µM [1] [%] | A2a @ 100 μM Adenosine (A2a cAMP IC50) ([1]; HEK293 cells stably expressing human A2a, 100 μM adenosine, 1 hour compound treatment, 10 µM)
Cc1ccnc2ccc(-c3c(-c4ccc(F)cc4)nc(N)c4nnnn34)cc12 [1-6, 6-(4-fluorophenyl)-5-(4-methylquinolin-6-yl)tetrazolo[1,5-a]pyrazin-8-amine] | < 0.1 | < 25 |  |  |  | 
Cn1cnc2ccc(-c3c(-c4ccc(F)cc4)nc(N)c4nnnn34)cc21 [1-13, 6-(4-fluorophenyl)-5-(1-methyl-1H-benzo[d]imidazol-6-yl)tetrazolo[1,5-a]pyrazin-8-amine] | < 0.1 |  | 0.1 to 1 | 0.1 to 1 |  | 
Nc1nc(-c2ccc(F)cc2)c(-c2cc(Cl)nc(C(F)(F)F)c2)c2nnnn12 [1-34, 8-(2-chloro-6-(trifluoromethyl)pyridin-4-yl)-7-(4-fluorophenyl)tetrazolo[1,5-c]pyrimidin-5-amine] | 0.1 to 1 | < 25 | > 1 |  |  | 
Cc1ccnc2ccc(-c3c(-c4ccc(F)cc4F)nc(N)c4nnnn34)cc12 [1-43, 6-(2,4-difluorophenyl)-5-(4-methylquinolin-6-yl)tetrazolo[1,5-a]pyrazin-8-amine] | < 0.1 | < 25 |  |  | < 25 | 
Nc1nc(-c2ccc(F)cc2)c(-c2cc(Cl)nc(C(F)(F)F)c2)n2nnnc12 [1-55, 5-(2-chloro-6-(trifluoromethyl)pyridin-4-yl)-6-(4-fluorophenyl)tetrazolo[1,5-a]pyrazin-8-amine] | 0.1 to 1 |  |  |  | < 25 | 
Cc1c(C#N)cccc1-c1cc(-c2cn(Cc3cccc(C(C)(C)O)n3)nn2)nc(N)n1 [AB928, reference compound] | 0.1 to 1 |  | > 1 | > 1 |  | 
Cc1ccc(-c2nc(N)nc3c2nnn3Cc2cccc(CO[C@H]3CCOC3)n2)o1 [CPI-444, reference compound] |  | < 25 |  |  |  | NR (“NR” indicates A2a or A2b mean inhibition is <25% at the top concentration)

Further lines, with some results ahead:

IC50 [1, 3] [µM] | inhibition at 10 µM [2] [%] | IC50 [1, 4] [µM] | IC50 [2] [µM] | inhibition at 10 µM [1] [%] | Structure (SMILES) | A2a @ 100 μM Adenosine (A2a cAMP IC50) ([1]; HEK293 cells stably expressing human A2a, 100 μM adenosine, 1 hour compound treatment, 10 µM)
< 0.1 |  | 0.1 to 1 | 0.1 to 1 |  | Cc1cnc2ccc(-c3c(-c4ccc(F)cc4)nc(N)c4nnnn34)cn12 [1-7, 6-(4-fluorophenyl)-5-(3-methylimidazo[1,2-a]pyridin-6-yl)tetrazolo[1,5-a]pyrazin-8-amine] | 
< 0.1 |  | > 1 | 0.1 to 1 |  | Nc1nc(-c2ccc(F)cc2)c(-c2ccc3ncc(CO)n3c2)n2nnnc12 [1-20, (6-(8-amino-6-(4-fluorophenyl)tetrazolo[1,5-a]pyrazin-5-yl)imidazo[1,2-a]pyridin-3-yl)methanol] | 
< 0.1 |  | 0.1 to 1 | 0.1 to 1 |  | Cc1cnc2ccc(-c3c(-c4ccc(F)cc4)nc(N)n4nnnc34)cn12 [1-25, 7-(4-fluorophenyl)-8-(3-methylimidazo[1,2-a]pyridin-6-yl)tetrazolo[1,5-c]pyrimidin-5-amine] | 
< 0.1 |  |  | 0.1 to 1 |  | Cc1ccnc2ccc(-c3c(-c4ccc(F)cc4)nc(N)n4nnnc34)cc12 [1-36, 7-(4-fluorophenyl)-8-(4-methylquinolin-6-yl)tetrazolo[1,5-c]pyrimidin-5-amine] | 
0.1 to 1 | < 25 |  |  |  | COc1ccc(-c2nc(N)c3nnnn3c2-c2ccc3nccc(C)c3c2)cc1 [1-38, 6-(4-methoxyphenyl)-5-(4-methylquinolin-6-yl)tetrazolo[1,5-a]pyrazin-8-amine] | 
0.1 to 1 |  | 0.1 to 1 | 0.1 to 1 |  | Nc1nc(-c2ccc(F)cc2)c(-c2ccc3ncc(C(F)F)n3c2)n2nnnc12 [1-48, 5-(3-(difluoromethyl)imidazo[1,2-a]pyridin-6-yl)-6-(4-fluorophenyl)tetrazolo[1,5-a]pyrazin-8-amine] | 
0.1 to 1 |  | > 1 |  |  | COc1ccc(-c2nc(N)c3nnnn3c2-c2ccc3ncc(C)n3c2)cc1 [1-56, 6-(4-methoxyphenyl)-5-(3-methylimidazo[1,2-a]pyridin-6-yl)tetrazolo[1,5-a]pyrazin-8-amine] | 
0.1 to 1 |  | > 1 | 0.1 to 1 |  | COc1ccc(-c2nc(N)n3nnnc3c2-c2ccc3ncc(C)n3c2)cc1 [1-57, 7-(4-methoxyphenyl)-8-(3-methylimidazo[1,2-a]pyridin-6-yl)tetrazolo[1,5-c]pyrimidin-5-amine] | 
0.1 to 1 |  | > 1 |  |  | Cc1cc(-c2c(-c3ccc(F)cc3)nc(N)n3nnnc23)cc(C(F)F)n1 [1-58, 8-(2-(difluoromethyl)-6-methylpyridin-4-yl)-7-(4-fluorophenyl)tetrazolo[1,5-c]pyrimidin-5-amine] | 
0.1 to 1 |  | > 1 |  |  | COc1ccc(-c2nc(N)n3nnnc3c2-c2cc(Cl)nc(C(F)(F)F)c2)cc1 [1-59, 8-(2-chloro-6-(trifluoromethyl)pyridin-4-yl)-7-(4-methoxyphenyl)tetrazolo[1,5-c]pyrimidin-5-amine] | 
